This note sets out measurements from patent US9878999B2, “Proteasome chymotrypsin-like inhibition using PI-1833 analogs” (H. Lee Moffitt Cancer Center and Research Institute, Inc., priority 2011, dated 2018).

Values joined by “and” are separate entries in the source; they are usually repeats but may differ in a detail not shown here. Identical values can stand only once. Like-named read-outs stand apart in the source and are kept apart here. Where only a bound is given, the exact number is not on record here.

In this experiment the target is CT-L activity of purified 20S proteasome (Homo sapiens, UniProt P20618+P28074). Description: in vitro CT-L activity of purified 20S proteasome. In kind it is biochemical. Conditions: for fold loss of CT-L activity: compared to 1; for Chymotrypsin-like activity, % @ 10 μM: Table 2, @ 10 μM; for fold difference of CT-L potency between S- and R-enantiomer: 16c vs 16b, 16e vs 16f.

Where [1] appears, read: Table 1, read-out: IC50 (μM) Chymotrypsin-like activity.
Where [2] appears, read: read-out: % inhibition of CT-L @ 10 μM, @ 10 μM.
Setting [3] is: Table 2, read-out: IC50 (μM) Chymotrypsin-like activity.
[4] abbreviates: Table 3, read-out: IC50 (μM) CT-L.
The mark [5] stands for this setting: Table 10, read-out: IC50 (μM) CT-L.
The mark [6] stands for this setting: Table 5, @ 10 μM, read-out: Screening Results (% Inhibition @ 10 μM) Chymotrypsin-like.
Where [7] appears, read: Table 5, read-out: IC50 (μM) Chymotrypsin-like.

In general, IC50 refers to the concentration at which inhibition is half-maximal. As a reminder, the inhibition is the relative decrease from the control value, in per cent. In the case of `CC(C)N(Cc1nc(-c2ccccc2)no1)C(=O)COc1ccc2cc(Br)ccc2c1` [11r, 2-(6-Bromonaphthalen-2-yloxy)-N-isopropyl-N-((3-phenyl-1,2,4-oxadiazol-5-yl)methyl)acetamide], the concentration for half-maximal inhibition (IC50) under setting [1] was > 10 µM. Further, the inhibition at 10 µM under setting [2] was < 70%.

Regarding `CC(C)N(Cc1nc(-c2ccccc2)no1)C(=O)COc1ccc(F)cc1` [11s, 2-(4-Fluorophenoxy)-N-isopropyl-N-((3-phenyl-1,2,4-oxadiazol-5-yl)methyl)acetamide], the “CT-L inhibitory activity, in words” value is listed as “poor CT-L inhibitory activity”. Besides, the half-inhibitory concentration (IC50) under setting [1] worked out at 8.73 ± 3.05 µM. For the same compound, the “fold loss of CT-L inhibitory activity” value (compared to 11b) was 20 fold.

Regarding `CC(C)N(Cc1nc(-c2cccnc2)no1)C(=O)COc1ccc(O)cc1` [11u], the IC50 was 0.98 ± 0.5 µM under setting [1] and ~1 µM (read-out: IC50, in vitro CT-L).

With `CC(C)N(Cc1nc(-c2ccccc2)no1)C(=O)COc1ccc(O)cc1` [11v, 2-(4-hydroxyphenoxy)-N-isopropyl-N-((3-phenyl-1,2,4-oxadiazol-5-yl)methyl)acetamide], the half-maximal inhibitory concentration (IC50) amounted to 10.1 ± 4.52 µM under setting [1] and 10 µM (read-out: IC50, in vitro CT-L).

Regarding `Cc1ccc(OCC(=O)N(Cc2nc(-c3ccccn3)no2)C(C)C)cc1` [11w, N-Isopropyl-N-((3-(pyridin-2-yl)-1,2,4-oxadizaol-5-yl)methyl)-2-(p-tolyloxy)acetamide], the IC50 amounted to 3.75 ± 1.47 µM under setting [1] and 3.74 ± 1.47 µM (read-out: IC50, in vitro CT-L).

On to `Cc1ccc(OCC(=O)N(Cc2nc(-c3cccnc3)no2)C(C)C)cc1` [11x, N-isopropyl-N-((3-(pyridin-3-yl)-1,2,4-oxadiazol-5-yl)methyl)-2-(p-tolyloxy)acetamide], for which the “fold improved CT-L activity” value (compared to the hit 1 (PI-1833)) stood at 2.5 fold. Besides, under “read-out: IC50, in vitro CT-L”, the IC50 worked out at 0.239 ± 0.09 µM.

`Cc1ccc(OCC(=O)N(Cc2nc(-c3ccncc3)no2)C(C)C)cc1` [11y, N-Isopropyl-N-((3-(pyridin-4-yl)-1,2,4-oxadizaol-5-yl)methyl)-2-(p-tolyloxy)acetamide]: under “read-out: IC50, in vitro CT-L”, the IC50 came out at 0.37 ± 0.04 µM.

`Cc1ccc(OCC(=O)N(Cc2nc(-c3ccccc3)no2)C(C)C)cn1` [11z, N-Isopropyl-2-(60methylpyridin-3-yloxy)-N-((3-phenyl-1,2,4-oxadiazol-5-yl)methyl)acetamide]: the “CT-L inhibitory activity, in words” value is “failed to retain the activity”. Besides, under setting [1], the 50% inhibitory concentration (IC50) amounted to 4 ± 0.89 µM.

Consider `Cc1ccc(OCC(=O)N(Cc2nc(-c3ccc(C)cc3)no2)CC(C)C)cc1` [12a, N-Isobutyl-N-((3-p-tolyl-1,2,4-oxadiazol-5-yl)methyl)-2-(p-tolyloxy)acetamide], for which the “fold loss of CT-L activity” value is 3 fold. The IC50 (read-out: IC50, in vitro CT-L) was determined as 2.37 µM.

In the case of `CCN(Cc1nc(-c2ccc(C)cc2)no1)C(=O)COc1ccc(C)cc1` [12b, N-Ethyl-N-((3-p-tolyl-1,2,4-oxadiazol-5-yl)methyl)-2-(p-tolyloxy)acetamide], the “fold loss of CT-L activity” value amounted to 14 fold. In addition, the IC50 under setting [3] turned out to be 8.98 ± 5.21 µM. Under “read-out: IC50, in vitro CT-L”, the IC50 was found to be 8.8 µM.

For the compound `Cc1ccc(OCC(=O)N(C)Cc2nc(-c3ccc(C)cc3)no2)cc1` [12c, N-Methyl-N-((3-p-tolyl-1,2,4-oxadiazol-5-yl)methyl)-2-(p-tolyloxy)acetamide], under setting [3], the IC50 was 29.9 ± 3.9 µM.

For the compound `Cc1ccc(OCC(=O)NCc2nc(-c3ccc(C)cc3)no2)cc1` [12d, N-((3-p-tolyl-1,2,4-oxadiazol-5-yl)methyl)-2-(p-tolyloxy)acetamide], the “Chymotrypsin-like activity, % @ 10 μM” value is recorded as −62% @10 μM.

For `Cc1ccc(OCC(=O)N(Cc2nc(-c3ccc(C)cc3)no2)C(C)(C)C)cc1` [12e], the “Chymotrypsin-like activity, % @ 10 μM” value was −108.42 ± 118.76%.

Turning to `Cc1ccc(OCC(=O)N(Cc2nc(-c3ccc(C)cc3)no2)C2CC2)cc1` [12f, N-Cyclopropyl-N-((3-p-tolyl-1,2,4-oxadiazol-5-yl)methyl)-2-(p-tolyloxy)acetamide], the “Chymotrypsin-like activity, % @ 10 μM” value is listed as −8.36 ± 19.03%.

As to `Cc1ccc(O[C@@H](C)C(=O)N(Cc2nc(-c3cccnc3)no2)C(C)C)cc1` [16b, (S)—N-Isopropyl-N-((3-(pyridine-3-yl)-1,2,4-oxadiazol-5-yl)methyl)-2-(p-tolyloxy)propanamide], the IC50 (read-out: IC50, in vitro CT-L) worked out at 0.214 µM.

For the compound `Cc1ccc(O[C@H](C)C(=O)N(Cc2nc(-c3cccnc3)no2)C(C)C)cc1` [16c, (R)—N-Isopropyl-N-((3-(pyridine-3-yl)-1,2,4-oxadiazol-5-yl)methyl)-2-(p-tolyloxy)propanamide], the “fold difference of CT-L potency between S- and R-enantiomer” value came out at 35 fold. Moreover, the IC50 under setting [4] is 7.52 ± 2.13 µM.

Consider `CCCc1ccc(O[C@@H](C)C(=O)N(Cc2nc(-c3cccnc3)no2)C(C)C)cc1` [16e, (S)—N-Isopropyl-2-(4-propylphenoxy)-N-((3-(pyridine-3-yl)-1,2,4-oxadiazol-5-yl)methyl)propanamide], for which the “fold difference of CT-L potency between S- and R-enantiomer” value was 40 fold. Besides, the concentration for half-maximal inhibition (IC50) under setting [4] came out at 0.075 µM.

As for `Cc1ccc(OCC(=O)N(Cc2nc(-c3ccc(C)cc3)no2)C(C)C)cc1` [PI-1833 (23)], the IC50 (Table 4, read-out: IC50 (μM) Chymotrypsin-like activity) is 0.716 ± 0.27 µM.

As for `Cc1ccc(CNC(=O)N(Cc2nc(-c3ccccc3)no2)C(C)C)cc1` [SO2-024, 1-Isopropyl-3-(4-methylbenzyl)-1-((3-phenyl-1,2,4-oxadiazol-5-yl)methyl)urea], the IC50 under setting [5] is > 10 µM and the IC50 (read-out: IC50, in vitro CT-L) was > 10 µM.

Turning to `CC(C)N(Cc1nc(-c2ccccc2)no1)C(=O)CCc1ccc(C(F)(F)F)cc1` [SO2-027, N-Isopropyl-N-((3-phenyl-1,2,4-oxadiazol-5-yl)methyl)-3-(4-(trifluoromethyl)phenyl)propanamide], the IC50 reads like this: under setting [5], 15.7 µM; (read-out: IC50, in vitro CT-L) 15 µM.

With `Cc1ccc(NCC(=O)N(Cc2nc(-c3ccccc3)no2)C(C)C)cc1` [SO2-090, N-Isopropyl-N-((3-phenyl-1,2,4-oxadiazol-5-yl)methyl)-2-(p-tolylamino)acetamide], the IC50 (read-out: IC50, in vitro CT-L) amounted to 5.67 µM.

Take `Cc1ccc(OCC(=O)N(CCc2nc(-c3ccccc3)no2)C(C)C)cc1` [SO2-091, N-Isopropyl-N-(2-(3-phenyl-1,2,4-oxadiazol-5-yl)ethyl)-2-(p-tolyloxy)acetamide]: under setting [2], the inhibition at 10 µM is 31%.

As to `CC(C)N(Cc1nc(-c2cccnc2)no1)C(=O)c1cc2ccccc2o1` [SO3-029], the half-maximal inhibitory concentration (IC50) under setting [5] amounted to 0.379 ± 0.063 µM.

As to `Cc1ccc(OCC(=O)N(Cc2nc(-c3ccc(C)cc3)no2)CC(C)C)cc1` [compound 36], the “CT-L inhibitory activity, in words” value is listed as “loss of CT-L proteasome activity”. In addition, the IC50 (Table 7, 20S CT-L proteasome activity, read-out: IC50 (μM) CT-L) was 2.37 ± 0.4 µM.

Regarding `CC(C)N(Cc1nc(-c2ccccc2)no1)C(=O)CCc1ccc(C(F)(F)F)cc1` [compound 41], the “CT-L inhibitory activity, in words” value is given as “activity was diminished”.

As for `Cc1ccc(CNC(=O)N(Cc2nc(-c3ccccc3)no2)C(C)C)cc1` [compound 43], the “CT-L inhibitory activity, in words” value was “loss of CT-L activity”.

On to `Cc1ccc(OCC(=O)N(Cc2nc(-c3ccc(C)cc3)no2)C(C)C)cc1` [drawing 108], for which the “Screening Results (% Inhibition @ 10 μM) Chymotrypsin-like” value (Table 5, @ 10 μM, 10 µM) was 74% and 67% and 71%. In addition, the inhibition at 10 µM under setting [6] came to 73%. Moreover, under setting [7], the half-inhibitory concentration (IC50) came out at 0.65 ± 0.38 µM.

For `Cc1ccc(OCC(=O)N(Cc2nc(-c3ccc(C)cc3)no2)CC(C)C)cc1` [drawing 111], under setting [7], the IC50 was found to be 2.37 ± 0.4 µM.

For `Cc1ccc(OCC(=O)N(Cc2nc(-c3ccc(C(F)(F)F)cc3)no2)C(C)C)cc1` [drawing 112], the IC50 under setting [7] turned out to be 0.97 ± 0.15 µM.

With `Cc1ccc(OCC(=O)N(Cc2nc(-c3ccc(Cl)cc3)no2)C(C)C)cc1` [drawing 113], the IC50 under setting [7] was determined as 0.45 ± 0.15 µM.

In the case of `CC(C)N(Cc1nc(-c2ccc(Cl)cc2)no1)C(=O)COc1ccc(C(F)(F)F)cc1` [drawing 114], under setting [7], the IC50 is 0.58 µM and 0.857 µM.

With `CC(C)N(Cc1nc(-c2ccc(C(F)(F)F)cc2)no1)C(=O)COc1ccc(C(F)(F)F)cc1` [drawing 115], the IC50 under setting [7] was determined as 2.53 ± 0.95 µM.

With `CC(C)N(Cc1nc(-c2ccccc2)no1)C(=O)COc1ccc(C(F)(F)F)cc1` [drawing 116], the IC50 under setting [7] worked out at 0.43 ± 0.12 µM.

Turning to `Cc1ccc(OCC(=O)N(Cc2nc(-c3ccccc3)no2)C(C)C)cc1` [drawing 117], the IC50 under setting [7] worked out at 0.31 µM.

With `Cc1ccc(-c2noc(CN(C(=O)COc3ccc(C(F)(F)F)cc3)C(C)C)n2)cc1` [drawing 118], under setting [7], the IC50 is 1.08 ± 0.33 µM.

As to `CC(C)N(Cc1nc(-c2ccc(Cl)cc2)no1)C(=O)COc1ccc(Cl)cc1` [drawing 119], the half-maximal inhibitory concentration (IC50) under setting [7] came to 1.07 ± 0.05 µM.

Regarding `CC(C)N(Cc1nc(-c2ccc(C(F)(F)F)cc2)no1)C(=O)COc1ccc(Cl)cc1` [drawing 120], under setting [7], the IC50 is 1.4 ± 0.185 µM.

For `CC(C)N(Cc1nc(-c2ccccc2)no1)C(=O)COc1ccc(Cl)cc1` [drawing 121], under setting [7], the 50% inhibitory concentration (IC50) worked out at 0.51 ± 0.16 µM.

Turning to `Cc1ccc(OCC(=O)N(C)Cc2nc(-c3ccc(C)cc3)no2)cc1` [drawing 122], the IC50 under setting [7] was 29.9 ± 3.9 µM.

Consider `Cc1ccc(-c2noc(CN(C(=O)COc3ccc(Cl)cc3)C(C)C)n2)cc1` [drawing 123], for which, under setting [7], the concentration for half-maximal inhibition (IC50) came out at 1.12 ± 0.33 µM.

In the case of `Cc1ccc(-c2noc(CN(C(=O)COc3ccccc3)C(C)C)n2)cc1` [drawing 124], the concentration for half-maximal inhibition (IC50) under setting [7] was 8.47 ± 0.59 µM.

Regarding `CC(C)N(Cc1nc(-c2ccc(C(F)(F)F)cc2)no1)C(=O)COc1ccccc1` [drawing 126], under setting [7], the IC50 turned out to be 15.1 ± 6.94 µM.

Consider `CC(C)N(Cc1nc(-c2ccccc2)no1)C(=O)COc1ccccc1` [drawing 127], for which the IC50 under setting [7] was 6.22 ± 1.11 µM.

For `CCN(Cc1nc(-c2ccc(C)cc2)no1)C(=O)COc1ccc(C)cc1` [drawing 128], the concentration for half-maximal inhibition (IC50) under setting [7] worked out at 8.98 ± 5.21 µM.

In the case of `Cc1ccc(CNC(=O)N(Cc2nc(-c3ccccc3)no2)C(C)C)cc1` [drawing 129], the inhibition at 10 µM under setting [6] was -8.75 ± 17.4%.

Regarding `CC(C)N(Cc1nc(-c2ccccc2)no1)C(=O)CCc1ccc(C(F)(F)F)cc1` [drawing 130], the half-maximal inhibitory concentration (IC50) under setting [7] is 44 ± 20.9 µM.

Regarding `CC(C)N(Cc1nc(-c2ccccc2)no1)C(=O)COc1ccc(F)cc1` [drawing 131], the half-maximal inhibitory concentration (IC50) under setting [7] worked out at 8.73 ± 3.05 µM.

Take `CC(C)N(Cc1nc(-c2ccccc2)no1)C(=O)COc1ccc(-c2ccccc2)cc1` [drawing 132]: under setting [6], the inhibition at 10 µM is < 70%.
